Laboratory results taken from ChEMBL document CHEMBL1177848, “Synthesis of novel 6,6a,7,8-tetrahydro-5H-naphtho[1,2-e]pyrimido[4,5-b][1,4]diazepines under microwave irradiation as potential anti-tumor agents” (2010).
Activity calls are given as the source filed them.

Assays:
Type in all cases: functional, cell-based
MDA-MB-468 = experiment: Growth inhibition of human MDA-MB-468 cells at 1 uM after 48 hrs by sulforhodamine B assay
ACHN = experiment: Growth inhibition of human ACHN cells at 1 uM after 48 hrs by sulforhodamine B assay
LOX IMVI = experiment: Growth inhibition of human LOXIMVI cells at 1 uM after 48 hrs by sulforhodamine B assay
SN12C = experiment: Growth inhibition of human SN12C cells at 1 uM after 48 hrs by sulforhodamine B assay
BT-549 = experiment: Growth inhibition of human BT549 cells at 1 uM after 48 hrs by sulforhodamine B assay
PC-3 = experiment: Growth inhibition of human PC3 cells at 1 uM after 48 hrs by sulforhodamine B assay
NCI-H522 = experiment: Growth inhibition of human NCI-H522 cells at 1 uM after 48 hrs by sulforhodamine B assay
RXF 393 = experiment: Growth inhibition of human RXF393 cells at 1 uM after 48 hrs by sulforhodamine B assay
HT-29 = experiment: Growth inhibition of human HT-29 cells at 1 uM after 48 hrs by sulforhodamine B assay
SK-MEL-5 = experiment: Growth inhibition of human SK-MEL-5 cells at 1 uM after 48 hrs by sulforhodamine B assay
786-0 = experiment: Growth inhibition of human 786-0 cells at 1 uM after 48 hrs by sulforhodamine B assay
IGROV-1 = experiment: Growth inhibition of human IGROV1 cells at 1 uM after 48 hrs by sulforhodamine B assay
HCT-116 = experiment: Growth inhibition of human HCT116 cells at 1 uM after 48 hrs by sulforhodamine B assay
A498 = experiment: Growth inhibition of human A498 cells at 1 uM after 48 hrs by sulforhodamine B assay
SK-MEL-2 = experiment: Growth inhibition of human SK-MEL-2 cells at 1 uM after 48 hrs by sulforhodamine B assay
MDA-MB-435 = experiment: Growth inhibition of human MDA-MB-435 cells at 1 uM after 48 hrs by sulforhodamine B assay
UACC-62 = experiment: Growth inhibition of human UACC62 cells at 1 uM after 48 hrs by sulforhodamine B assay
KM12 = experiment: Growth inhibition of human KM12 cells at 1 uM after 48 hrs by sulforhodamine B assay
A549 = experiment: Growth inhibition of human A549 cells at 1 uM after 48 hrs by sulforhodamine B assay
SK-MEL-28 = experiment: Growth inhibition of human SK-MEL-28 cells at 1 uM after 48 hrs by sulforhodamine B assay
MCF7 = experiment: Growth inhibition of human MCF7 cells at 1 uM after 48 hrs by sulforhodamine B assay
MOLT-4 = experiment: Growth inhibition of human MOLT4 cells at 1 uM after 48 hrs by sulforhodamine B assay
HL-60 = experiment: Growth inhibition of human HL-60(TB) cells at 1 uM after 48 hrs by sulforhodamine B assay
HOP-92 = experiment: Growth inhibition of human HOP92 cells at 1 uM after 48 hrs by sulforhodamine B assay
TK-10 = experiment: Growth inhibition of human TK10 cells at 1 uM after 48 hrs by sulforhodamine B assay
HCT-15 = experiment: Growth inhibition of human HCT15 cells at 1 uM after 48 hrs by sulforhodamine B assay
UACC-257 = experiment: Growth inhibition of human UACC257 cells at 1 uM after 48 hrs by sulforhodamine B assay
MDA-MB-231 = experiment: Growth inhibition of human MDA-MB-231 cells at 1 uM after 48 hrs by sulforhodamine B assay
K562 = experiment: Growth inhibition of human K562 cells at 1 uM after 48 hrs by sulforhodamine B assay
NCI-H322M = experiment: Growth inhibition of human […] cells at 1 uM after 48 hrs by sulforhodamine B assay
Hs-578T = experiment: Growth inhibition of human Hs 578T cells at 1 uM after 48 hrs by sulforhodamine B assay
COLO 205 = experiment: Growth inhibition of human COLO205 cells at 1 uM after 48 hrs by sulforhodamine B assay
DU-145 = experiment: Growth inhibition of human DU145 cells at 1 uM after 48 hrs by sulforhodamine B assay
CAKI-1 = experiment: Growth inhibition of human Caki1 cells at 1 uM after 48 hrs by sulforhodamine B assay
M14 = experiment: Growth inhibition of human M14 cells at 1 uM after 48 hrs by sulforhodamine B assay
SF-539 = experiment: Growth inhibition of human SF539 cells at 1 uM after 48 hrs by sulforhodamine B assay
SNB-75 = experiment: Growth inhibition of human SNB75 cells at 1 uM after 48 hrs by sulforhodamine B assay
CCRF-CEM = experiment: Growth inhibition of human CCRF-CEM cells at 1 uM after 48 hrs by sulforhodamine B assay
NCI-H460 = experiment: Growth inhibition of human NCI-H460 cells at 1 uM after 48 hrs by sulforhodamine B assay
HOP-62 = experiment: Growth inhibition of human HOP62 cells at 1 uM after 48 hrs by sulforhodamine B assay
Malme-3M = experiment: Growth inhibition of human MALME-3M cells at 1 uM after 48 hrs by sulforhodamine B assay
NCI-H23 = experiment: Growth inhibition of human NCI-H23 cells at 1 uM after 48 hrs by sulforhodamine B assay
NCI/ADR-RES = experiment: Growth inhibition of human NCI/ADR-RES cells at 1 uM after 48 hrs by sulforhodamine B assay
T47D = experiment: Growth inhibition of human T47D cells at 1 uM after 48 hrs by sulforhodamine B assay
OVCAR-8 = experiment: Growth inhibition of human OVCAR8 cells at 1 uM after 48 hrs by sulforhodamine B assay
SW-620 = experiment: Growth inhibition of human SW620 cells at 1 uM after 48 hrs by sulforhodamine B assay
SF-268 = experiment: Growth inhibition of human SF268 cells at 1 uM after 48 hrs by sulforhodamine B assay
NCI-H226 = experiment: Growth inhibition of human NCI-H226 cells at 1 uM after 48 hrs by sulforhodamine B assay
EKVX = experiment: Growth inhibition of human EKVX cells at 1 uM after 48 hrs by sulforhodamine B assay
HCC 2998 = experiment: Growth inhibition of human HCC2998 cells at 1 uM after 48 hrs by sulforhodamine B assay
UO-31 = experiment: Growth inhibition of human UO31 cells at 1 uM after 48 hrs by sulforhodamine B assay
OVCAR-3 = experiment: Growth inhibition of human OVCAR-3 cells at 1 uM after 48 hrs by sulforhodamine B assay
SR = experiment: Growth inhibition of human SR cells at 1 uM after 48 hrs by sulforhodamine B assay
OVCAR-4 = experiment: Growth inhibition of human OVCAR4 cells at 1 uM after 48 hrs by sulforhodamine B assay
SF-295 = experiment: Growth inhibition of human SF295 cells at 1 uM after 48 hrs by sulforhodamine B assay
U-251 = experiment: Growth inhibition of human U251 cells at 1 uM after 48 hrs by sulforhodamine B assay
RPMI-8226 = experiment: Growth inhibition of human RPMI8226 cells at 1 uM after 48 hrs by sulforhodamine B assay
SF530 = experiment: Growth inhibition of human SF530 cells at 1 uM after 48 hrs by sulforhodamine B assay

Measured: growth inhibition (GI)

Nc1ncnc2c1N=C1c3ccccc3CCC1C(c1ccc(F)cc1)N2 (stereo not drawn)
active: MDA-MB-468 | ACHN | LOX IMVI | SN12C | BT-549 | PC-3 | NCI-H522 | RXF 393 | HT-29 | SK-MEL-5 | 786-0 | IGROV-1 | HCT-116 | A498 | SK-MEL-2 | MDA-MB-435 | UACC-62 | KM12 | A549 | SK-MEL-28 | MCF7 | MOLT-4 | HL-60 | HOP-92 | TK-10 | HCT-15 | UACC-257 | MDA-MB-231 | K562 | NCI-H322M | Hs-578T | COLO 205 | DU-145 | CAKI-1 | M14 | SF-539 | SNB-75 | CCRF-CEM | NCI-H460 | HOP-62 | Malme-3M | NCI-H23 | NCI/ADR-RES | T47D | OVCAR-8 | SW-620 | SF-268 | NCI-H226 | EKVX | HCC 2998 | UO-31 | OVCAR-3 | SR | OVCAR-4 | SF-295 | U-251 | RPMI-8226 | SF530
